Measured values published in the CheMixHub viscosity set.
± gives the uncertainty stated by the source.

Assay: xn = mol fraction of the nth substance listed

CCCCBr + CC(C)CO
viscosity [mPa·s], 101.33 kPa
Details | x2 = 0.101 | x2 = 0.2014 | x2 = 0.308 | x2 = 0.4025 | x2 = 0.5066 | x2 = 0.61 | x2 = 0.7006 | x2 = 0.8004 | x2 = 0.8984
298.15 K | 0.626 ± 0.009 | 0.671 ± 0.009 | 0.743 ± 0.01 | 0.83 ± 0.011 | 0.98 ± 0.013 | 1.196 ± 0.015 | 1.436 ± 0.018 | 1.845 ± 0.022 | 2.449 ± 0.029
308.15 K | 0.549 ± 0.008 | 0.576 ± 0.008 | 0.624 ± 0.009 | 0.682 ± 0.009 | 0.783 ± 0.01 | 0.934 ± 0.012 | 1.1 ± 0.014 | 1.387 ± 0.017 | 1.807 ± 0.022
318.15 K | 0.492 ± 0.007 | 0.512 ± 0.007 | 0.555 ± 0.008 | 0.593 ± 0.008 | 0.664 ± 0.009 | 0.774 ± 0.01 | 0.895 ± 0.012 | 1.098 ± 0.014 | 1.389 ± 0.017

CCCCNCCCC + CC(C)CO
viscosity [mPa·s], 101.33 kPa
Details | 298.15 K | 308.15 K | 318.15 K
x1 = 0.0659 | 3.147 | 2.311 | 1.743
x1 = 0.0962 | 3.01 | 2.218 | 1.683
x1 = 0.1558 | 2.74 | 2.038 | 1.562
x1 = 0.1967 | 2.557 | 1.918 | 1.482
x1 = 0.2681 | 2.25 | 1.708 | 1.336
x1 = 0.3132 | 2.076 | 1.591 | 1.256
x1 = 0.3956 | 1.791 | 1.394 | 1.118
x1 = 0.4699 | 1.576 | 1.245 | 1.011
x1 = 0.5552 | 1.379 | 1.11 | 0.914
x1 = 0.6322 | 1.234 | 1.007 | 0.838
x1 = 0.7567 | 1.05 | 0.874 | 0.743
x1 = 0.8163 | 0.985 | 0.824 | 0.708
x1 = 0.8647 | 0.93 | 0.787 | 0.678
x1 = 0.8978 | 0.901 | 0.766 | 0.662
x1 = 0.9162 | 0.882 | 0.751 | 0.651

COCCO + CC(C)CO
Details | viscosity [mPa·s]
303.15 K, 101.3 kPa, x1 = 0.0962 | 2.478 ± 0.029
303.15 K, 101.3 kPa, x1 = 0.2087 | 2.104 ± 0.024
303.15 K, 101.3 kPa, x1 = 0.328 | 1.823 ± 0.021
303.15 K, 101.3 kPa, x1 = 0.433 | 1.653 ± 0.019
303.15 K, 101.3 kPa, x1 = 0.5976 | 1.493 ± 0.017
303.15 K, 101.3 kPa, x1 = 0.6411 | 1.468 ± 0.017
303.15 K, 101.3 kPa, x1 = 0.7261 | 1.431 ± 0.017
303.15 K, 101.3 kPa, x1 = 0.8566 | 1.398 ± 0.016
303.15 K, 101.3 kPa, x1 = 0.9229 | 1.391 ± 0.016
308.15 K, 101.33 kPa, x1 = 0.1438 | 1.902 ± 0.016
308.15 K, 101.33 kPa, x1 = 0.2792 | 1.664 ± 0.014
308.15 K, 101.33 kPa, x1 = 0.3329 | 1.595 ± 0.013
308.15 K, 101.33 kPa, x1 = 0.505 | 1.422 ± 0.012
308.15 K, 101.33 kPa, x1 = 0.6648 | 1.32 ± 0.011
308.15 K, 101.33 kPa, x1 = 0.7249 | 1.292 ± 0.011
308.15 K, 101.33 kPa, x1 = 0.7936 | 1.264 ± 0.011
308.15 K, 101.33 kPa, x1 = 0.8977 | 1.231 ± 0.01

COCCO + CC(C)O
303.15 K, 101.3 kPa
Details | viscosity [mPa·s]
x1 = 0.0989 | 1.54 ± 0.018
x1 = 0.1681 | 1.426 ± 0.017
x1 = 0.3537 | 1.24 ± 0.014
x1 = 0.388 | 1.222 ± 0.014
x1 = 0.5422 | 1.196 ± 0.014
x1 = 0.5877 | 1.202 ± 0.014
x1 = 0.7821 | 1.268 ± 0.015
x1 = 0.8235 | 1.288 ± 0.015
x1 = 0.8851 | 1.324 ± 0.015

CCCC(C)O (stereo not given) + CC(C)OC(C)C
viscosity [mPa·s], 100 kPa
Details | x2 = 0.0801 | x2 = 0.1597 | x2 = 0.2402 | x2 = 0.3503 | x2 = 0.4399 | x2 = 0.5598 | x2 = 0.6493 | x2 = 0.7372 | x2 = 0.8487 | x2 = 0.9379
293.15 K | 3.43 ± 0.17 | 2.94 ± 0.15 | 2.52 ± 0.13 | 2.08 ± 0.1 | 1.76 ± 0.09 | 1.386 ± 0.07 | 1.13 ± 0.06 | 0.9 ± 0.05 | 0.64 ± 0.03 | 0.45 ± 0.02
298.15 K | 2.87 ± 0.14 | 2.44 ± 0.12 | 2.1 ± 0.11 | 1.74 ± 0.09 | 1.48 ± 0.07 | 1.176 ± 0.059 | 0.969 ± 0.049 | 0.783 ± 0.04 | 0.57 ± 0.03 | 0.42 ± 0.02
303.15 K | 2.42 ± 0.12 | 2.06 ± 0.1 | 1.78 ± 0.09 | 1.49 ± 0.08 | 1.286 ± 0.065 | 1.04 ± 0.05 | 0.864 ± 0.044 | 0.705 ± 0.036 | 0.518 ± 0.026 | 0.389 ± 0.02
308.15 K | 2.04 ± 0.1 | 1.74 ± 0.09 | 1.5 ± 0.08 | 1.26 ± 0.06 | 1.09 ± 0.06 | 0.89 ± 0.05 | 0.75 ± 0.04 | 0.62 ± 0.03 | 0.47 ± 0.02 | 0.36 ± 0.02
313.15 K | 1.71 ± 0.09 | 1.45 ± 0.07 | 1.26 ± 0.06 | 1.06 ± 0.05 | 0.922 ± 0.047 | 0.755 ± 0.038 | 0.64 ± 0.03 | 0.536 ± 0.027 | 0.414 ± 0.021 | 0.33 ± 0.02
318.15 K | 1.42 ± 0.07 | 1.2 ± 0.06 | 1.05 ± 0.05 | 0.89 ± 0.05 | 0.78 ± 0.04 | 0.642 ± 0.033 | 0.547 ± 0.028 | 0.467 ± 0.024 | 0.375 ± 0.019 | 0.306 ± 0.016
323.15 K | 1.19 ± 0.06 | 1.02 ± 0.05 | 0.89 ± 0.05 | 0.76 ± 0.04 | 0.667 ± 0.034 | 0.554 ± 0.028 | 0.477 ± 0.024 | 0.41 ± 0.02 | 0.33 ± 0.02 | 0.28 ± 0.02

FC(F)(Cl)Cl + CC(F)F
101 kPa, x1 = 0.606
Details | viscosity [mPa·s]
295.47 K | 0.199 ± 0.0024
311.17 K | 0.1745 ± 0.0022
